Data published in patent US10770169B2, “Method of providing a treatment to a subject based on a dynamic pathway map” (THE REGENTS OF THE UNIVERSITY OF CALIFORNIA, priority 2010, dated 2020).
Read-outs that look alike come from different tables or passages of the source.

Experiments:
[1] = system: panel of 55 breast cancer cell lines; assay: Cell growth inhibition assay (Cell Titer Glo, 72 h, 9 doses; GI50, TGI, LC50); type: cell-based, human; conditions: Homo sapiens, read-out: GI50 (converted)
[2] = system: luminal, basal, claudin-low and ERBB2AMP breast cancer cell lines; assay: Associations of clinically relevant subtypes and response (non-parametric ANOVA or t-test on GI50 ranks); type: cell-based, human; conditions: Table 6; most sensitive subtype, FDR p<0.20
Summary of the method: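 Significance was set at FDR p<0.20 after combining p-values across three test sets. Subtype–response associations came from rank-based non-parametric ANOVA or t-tests on GI50. For three-class comparisons, post-hoc tests of each group against the rest identified the most sensitive group, with FDR correction.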

CO[C@H]1C[C@@H]2CC[C@@H](C)[C@@](O)(O2)C(=O)C(=O)N2CCCC[C@H]2C(=O)O[C@H]([C@H](C)C[C@@H]2CC[C@@H](OC(=O)C(C)(CO)CO)[C@H](OC)C2)CC(=O)[C@H](C)/C=C(\C)[C@@H](O)[C@@H](OC)C(=O)[C@H](C)C[C@H](C)/C=C/C=C/C=C/1C [Temsirolimus] gave a GI50 ([1]; 600MPE cell line, censored GI50 values) of 18200 nM, a GI50 ([1]; AU565, AU565 cell line, censored GI50 values) of 100 nM and a GI50 ([1]; AU565, cell line AU565) of 100 nM. The GI50 ([1]; BT-20, BT20 cell line, censored GI50 values) was 776 nM, the GI50 ([1]; BT-20, cell line BT20) was 776 nM and the GI50 ([1]; BT-474, BT474 cell line, censored GI50 values) was 13.5 nM. The GI50 ([1]; BT-474, cell line BT474) was 13.5 nM, the GI50 ([1]; BT-483, BT483 cell line, censored GI50 values) was 66100 nM and the GI50 ([1]; BT-483, cell line BT483) was 66100 nM. It also gave a GI50 ([1]; CAMA-1, CAMA1 cell line, censored GI50 values) of 43.7 nM, a GI50 ([1]; CAMA-1, cell line CAMA1) of 43.7 nM and a GI50 ([1]; HCC38, HCC38 cell line, censored GI50 values) of 389 nM. For the same compound, the GI50 ([1]; HCC38, cell line HCC38) was 389 nM, the GI50 ([1]; HCC70, HCC70 cell line, censored GI50 values) was 407 nM and the GI50 ([1]; HCC70, cell line HCC70) was 407 nM. The GI50 ([1]; HCC1143, HCC1143 cell line, censored GI50 values) was 1580 nM, the GI50 ([1]; HCC1143, cell line HCC1143) was 1580 nM and the GI50 ([1]; HCC1187, HCC1187 cell line, censored GI50 values) was 794 nM. It also gave a GI50 ([1]; HCC1187, cell line HCC1187) of 794 nM, a GI50 ([1]; HCC1395, HCC1395 cell line, censored GI50 values) of 12600 nM and a GI50 ([1]; HCC1395, cell line HCC1395) of 12600 nM. It also gave a GI50 ([1]; HCC1419, HCC1419 cell line, censored GI50 values) of 52.5 nM, a GI50 ([1]; HCC1419, cell line HCC1419) of 52.5 nM and a GI50 ([1]; HCC1428, HCC1428 cell line, censored GI50 values) of 6170 nM. For the same compound, the GI50 ([1]; HCC1428, cell line HCC1428) was 6170 nM, the GI50 ([1]; HCC1500, HCC1500 cell line, censored GI50 values) was 24500 nM and the GI50 ([1]; HCC1500, cell line HCC1500) was 24500 nM. For the same compound, the GI50 ([1]; HCC1806, HCC1806 cell line, censored GI50 values) was 20400 nM, the GI50 ([1]; HCC1806, cell line HCC1806) was 20400 nM and the GI50 ([1]; HCC1937, HCC1937 cell line, censored GI50 values) was 437 nM. For the same compound, the GI50 ([1]; HCC1937, cell line HCC1937) was 437 nM, the GI50 ([1]; HCC1954, HCC1954 cell line, censored GI50 values) was 219 nM and the GI50 ([1]; HCC1954, cell line HCC1954) was 219 nM. For the same compound, the GI50 ([1]; HCC2185 cell line, censored GI50 values) was 13.2 nM, the GI50 ([1]; HCC3153 cell line, censored GI50 values) was 20000 nM and the GI50 ([1]; LY2 cell line, censored GI50 values) was 209 nM. For the same compound, the GI50 ([1]; MCF7, MCF7 cell line, censored GI50 values) was 1550 nM, the GI50 ([1]; MCF7, cell line MCF7) was 1550 nM and the GI50 ([1]; MDA-MB-134-VI, MDAMB134VI cell line, censored GI50 values) was 166 nM. The GI50 ([1]; MDA-MB-175-VII, MDAMB175VII cell line, censored GI50 values) was 2290 nM, the GI50 ([1]; MDA-MB-361, MDAMB361 cell line, censored GI50 values) was 251 nM and the GI50 ([1]; MDA-MB-415, MDAMB415 cell line, censored GI50 values) was 75.9 nM. The GI50 ([1]; MDA-MB-436, MDAMB436 cell line, censored GI50 values) was 53700 nM, the GI50 ([1]; MDA-MB-453, MDAMB453 cell line, censored GI50 values) was 100 nM and the GI50 ([1]; MDA-MB-468, MDAMB468 cell line, censored GI50 values) was 5620 nM. It also gave a GI50 ([1]; SK-BR-3, SKBR3 cell line, censored GI50 values) of 53.7 nM, a GI50 ([1]; SUM52PE, SUM52PE cell line, censored GI50 values) of 0.417 nM and a GI50 ([1]; SUM149PT, SUM149PT cell line, censored GI50 values) of 6170 nM. It also gave a GI50 ([1]; SUM185PE, SUM185PE cell line, censored GI50 values) of 1.1 nM, a GI50 ([1]; SUM1315MO2, SUM1315MO2 cell line, censored GI50 values) of 1120 nM and a GI50 ([1]; SUM-159-PT, SUM159PT cell line, censored GI50 values) of 229 nM. It also gave a GI50 ([1]; T47D, T47D cell line, censored GI50 values) of 1410 nM, a GI50 ([1]; UACC-812, UACC812 cell line, censored GI50 values) of 575 nM and a GI50 ([1]; ZR-75-1, ZR751 cell line, censored GI50 values) of 66100 nM. The GI50 ([1]; ZR-75B, ZR75B cell line, censored GI50 values) was 107 nM, the GI50 ([1]; cell line 600MPE) was 18200 nM and the GI50 ([1]; cell line HCC2185) was 13.2 nM. The GI50 ([1]; cell line HCC3153) was 20000 nM, the GI50 ([1]; cell line LY2) was 209 nM and the Subtype specificity [2] was “Luminal/ERBB2AMP”.
